According to patent US12398120B2, “Substituted hydantoinamides as ADAMTS7 antagonists” (BAYER AKTIENGESELLSCHAFT, priority 2019, dated 2025):

Target: ADAMTS4 (Homo sapiens (Human), UniProt O75173)
Experiment: Selectivity assay for ADAMTS-7 modulators: ADAMTS4 (FRET substrate)
Assay type: biochemical
Conditions: ADAMTS4 (R&D 4307-AD) 50 nM, substrate Dabcyl-EEVKAKVQPY-Glu(Edans)-NH2 1 μM, 120 min, 32° C.
Procedure, shortened: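 Human ADAMTS4 with compound in DMSO, or DMSO control; reaction started by adding FRET substrate in reaction buffer. Fluorescence increase measured at substrate-specific wavelengths. IC50 derived from % inhibition of enzyme activity versus compound concentration.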

Sequence of ADAMTS4 (O75173 213-685): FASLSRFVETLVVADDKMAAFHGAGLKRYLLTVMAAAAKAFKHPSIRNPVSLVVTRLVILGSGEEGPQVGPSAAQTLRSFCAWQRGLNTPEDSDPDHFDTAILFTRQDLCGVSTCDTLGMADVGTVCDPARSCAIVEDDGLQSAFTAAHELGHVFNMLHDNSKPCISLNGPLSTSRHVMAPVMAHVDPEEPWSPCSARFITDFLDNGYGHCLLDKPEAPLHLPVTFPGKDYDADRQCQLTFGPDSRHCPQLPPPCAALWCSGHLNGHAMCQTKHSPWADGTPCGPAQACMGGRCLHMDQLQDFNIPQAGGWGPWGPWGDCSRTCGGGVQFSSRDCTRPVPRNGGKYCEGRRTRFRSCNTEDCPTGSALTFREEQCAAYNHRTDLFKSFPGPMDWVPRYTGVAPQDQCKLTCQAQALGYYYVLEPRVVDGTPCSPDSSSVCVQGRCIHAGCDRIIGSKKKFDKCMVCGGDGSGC

| Structure (SMILES) | IC50 [µM] |
| --- | --- |
| Cc1nc(C2(CNC(=O)c3ccc(F)cc3-c3ccc(C(F)(F)F)cc3)NC(=O)NC2=O)c(C)s1 (racemic) [Example 269, Rac-N-{[4-(2,5-Dimethyl-1,3-Thiazol-4-Yl)-2,5-Dioxoimidazolidin-4-Yl]Methyl}-5-Fluoro-4′-(Trifluoromethyl)[Biphenyl]-2-Carboxamide] | 9.5 |
| Cc1cc(C2(CNC(=O)c3ccc(F)cc3-c3ccc(C(F)(F)F)cc3)NC(=O)NC2=O)n(C)n1 (racemic) [Example 276, Rac-N-{[4-(1,3-Dimethyl-1H-Pyrazol-5-Yl)-2,5-Dioxoimidazolidin-4-Yl]Methyl}-5-Fluoro-4′-(Trifluoromethyl)[Biphenyl]-2-Carboxamide] | 15 |
| O=C1NC(=O)C(CNC(=O)c2ccccc2-c2ccc(C(F)(F)F)nc2)(C2(Cl)CC2)N1 (racemic) [Example 281, Rac-N-{[4-(1-Chlorocyclopropyl)-2,5-Dioxoimidazolidin-4-Yl]Methyl}-2-[6-(Trifluoromethyl)Pyridin-3-Yl]Benzamide] | 26 |
| O=C1NC(=O)C(CNC(=O)c2ccc(F)cc2-c2ccc(C(F)(F)F)cc2)(C2(Cl)CC2)N1 (racemic) [Example 282, Rac-N-{[4-(1-Chlorocyclopropyl)-2,5-Dioxoimidazolidin-4-Yl]Methyl}-5-Fluoro-4′-(Trifluoromethyl)[Biphenyl]-2-Carboxamide] | 16 |
| Cn1cncc1C1(CNC(=O)c2ccc(F)cc2-c2ccc(C(F)(F)F)cc2)NC(=O)NC1=O (racemic) [Example 284, Rac-5-Fluoro-N-{[4-(1-Methyl-1H-Imidazol-5-Yl)-2,5-Dioxoimidazolidin-4-Yl]Methyl}-4′-(Trifluoromethyl)[Biphenyl]-2-Carboxamide] | 8.5 |
| Cn1cncc1C1(CNC(=O)c2ccccc2-c2ccc(C(F)(F)F)nc2)NC(=O)NC1=O (racemic) [Example 285, Rac-N-{[4-(1-Methyl-1H-Imidazol-5-Yl)-2,5-Dioxoimidazolidin-4-Yl]Methyl}-2-[6-(Trifluoromethyl)Pyridin-3-Yl]Benzamide] | 6.6 |
| Cc1ncn(C)c1C1(CNC(=O)c2ccc(F)cc2-c2ccc(C(F)(F)F)cc2)NC(=O)NC1=O (racemic) [Example 286, Rac-N-{[4-(1,4-Dimethyl-1H-Imidazol-5-Yl)-2,5-Dioxoimidazolidin-4-Yl]Methyl}-5-Fluoro-4′-(Trifluoromethyl)[Biphenyl]-2-Carboxamide] | 9.8 |
| Cn1nc2ccccc2c1C1(CNC(=O)c2ccc(F)cc2-c2ccc(C(F)(F)F)cc2)NC(=O)NC1=O (racemic) [Example 288, Rac-5-Fluoro-N-{[4-(2-Methyl-2H-Indazol-3-Yl)-2,5-Dioxoimidazolidin-4-Yl]Methyl}-4′-(Trifluoromethyl)[Biphenyl]-2-Carboxamide] | 21 |
| O=C1NC(=O)C(CNC(=O)c2ccc(F)cc2-c2ccc(C(F)(F)F)cc2)(C23CC(F)(C2)C3)N1 (racemic) [Example 293, Rac-5-Fluoro-N-{[4-(3-Fluorobicyclo[1.1.1]Pentan-1-Yl)-2,5-Dioxoimidazolidin-4-Yl]Methyl}-4′-(Trifluoromethyl)[Biphenyl]-2-Carboxamide] | > 50 |
| O=C1NC(=O)C(CNC(=O)c2ccc(F)c(F)c2-c2ccc(C(F)(F)F)cc2)(C23CC(F)(C2)C3)N1 (racemic) [Example 295, Rac-5,6-Difluoro-N-{[4-(3-Fluorobicyclo[1.1.1]Pentan-1-Yl)-2,5-Dioxoimidazolidin-4-Yl]Methyl}-4′-(Trifluoromethyl)[Biphenyl]-2-Carboxamide] | > 50 |
| O=C1NC(=O)C(CNC(=O)c2cccc(F)c2-c2ccc(C(F)(F)F)cc2)(C2(F)CC2)N1 (racemic) [Example 299, Rac-6-Fluoro-N-{[4-(1-Fluorocyclopropyl)-2,5-Dioxoimidazolidin-4-Yl]Methyl}-4′-(Trifluoromethyl)[Biphenyl]-2-Carboxamide] | 19 |
| Cc1sc(C(F)(F)F)nc1C1(CNC(=O)c2ccc(F)cc2-c2ccc(C(F)(F)F)cc2)NC(=O)NC1=O (racemic) [Example 303, Rac-5-Fluoro-N-({4-[5-Methyl-2-(Trifluoromethyl)-1,3-Thiazol-4-Yl]-2,5-Dioxoimidazolidin-4-Yl}Methyl)-4′-(Trifluoromethyl)[Biphenyl]-2-Carboxamide] | 38 |
| Cc1cc(C2(CNC(=O)c3ccc(F)c(F)c3-c3ccc(C(F)(F)F)cc3)NC(=O)NC2=O)nn1C (racemic) [Example 305, Rac-N-{[4-(1,5-Dimethyl-1H-Pyrazol-3-Yl)-2,5-Dioxoimidazolidin-4-Yl]Methyl}-5,6-Difluoro-4′-(Trifluoromethyl)[Biphenyl]-2-Carboxamide] | 28 |
| Cc1nscc1C1(CNC(=O)c2ccc(F)c(F)c2-c2ccc(C(F)(F)F)cc2)NC(=O)NC1=O (racemic) [Example 306, Rac-5,6-Difluoro-N-{[4-(3-Methyl-1,2-Thiazol-4-Yl)-2,5-Dioxoimidazolidin-4-Yl]Methyl}-4′-(Trifluoromethyl)[Biphenyl]-2-Carboxamide] | 16 |
| Cn1ccc(C2(CNC(=O)c3ccc(F)c(F)c3-c3ccc(C(F)(F)F)cc3)NC(=O)NC2=O)n1 (racemic) [Example 307, Rac-5,6-Difluoro-N-{[4-(1-Methyl-1H-Pyrazol-3-Yl)-2,5-Dioxoimidazolidin-4-Yl]Methyl}-4′-(Trifluoromethyl)[Biphenyl]-2-Carboxamide] | 23 |
| O=C1NC(=O)C(CNC(=O)c2ccc(F)c(F)c2-c2ccc(C(F)(F)F)cc2)(c2ccnn2-c2ccccc2)N1 (racemic) [Example 315, Rac-N-{[2,5-Dioxo-4-(1-Phenyl-1H-Pyrazol-5-Yl)Imidazolidin-4-Yl]Methyl}-5,6-Difluoro-4′-(Trifluoromethyl)[Biphenyl]-2-Carboxamide] | 1.3 |
| Cc1c(C2(CNC(=O)c3ccc(F)c(F)c3-c3ccc(C(F)(F)F)cc3)NC(=O)NC2=O)cnn1C (racemic) [Example 316, Rac-N-{[4-(1,5-Dimethyl-1H-Pyrazol-4-Yl)-2,5-Dioxoimidazolidin-4-Yl]Methyl}-5,6-Difluoro-4′-(Trifluoromethyl)[Biphenyl]-2-Carboxamide] | 12 |

Other lines, results leading:

| IC50 [µM] | Structure (SMILES) |
| --- | --- |
| 32 | O=C1NC(=O)C(CNC(=O)c2ccccc2-c2ccc(C(F)(F)F)cc2)(c2ncsc2C(F)(F)F)N1 (racemic) [Example 263, Rac-N-({2,5-Dioxo-4-[5-(Trifluoromethyl)-1,3-Thiazol-4-Yl]Imidazolidin-4-Yl}Methyl)-4′-(Trifluoromethyl)[Biphenyl]-2-Carboxamide] |
| 9.1 | O=C1NC(=O)C(CNC(=O)c2cc(F)ccc2-c2ccc(C(F)(F)F)cc2)(c2ncsc2C(F)(F)F)N1 (racemic) [Example 265, Rac-N-({2,5-Dioxo-4-[5-(Trifluoromethyl)-1,3-Thiazol-4-Yl]Imidazolidin-4-Yl}Methyl)-4-Fluoro-4′-(Trifluoromethyl)[Biphenyl]-2-Carboxamide] |
| 19 | O=C1NC(=O)C(CNC(=O)c2ccc(F)cc2-c2ccc(C(F)(F)F)cc2)(c2ncsc2C(F)(F)F)N1 (racemic) [Example 267, Rac-N-({2,5-Dioxo-4-[5-(Trifluoromethyl)-1,3-Thiazol-4-Yl]Imidazolidin-4-Yl}Methyl)-5-Fluoro-4′-(Trifluoromethyl)[Biphenyl]-2-Carboxamide] |
| 6.9 | O=C1NC(=O)C(CNC(=O)c2ccccc2-c2ccc(C(F)(F)F)cc2)(c2ncsc2C2CC2)N1 (racemic) [Example 270, Rac-N-{[4-(5-Cyclopropyl-1,3-Thiazol-4-Yl)-2,5-Dioxoimidazolidin-4-Yl]Methyl}-4′-(Trifluoromethyl)[Biphenyl]-2-Carboxamide] |
| 7.8 | O=C1NC(=O)C(CNC(=O)c2ccc(F)cc2-c2ccc(C(F)(F)F)cc2)(c2ncsc2C2CC2)N1 (racemic) [Example 272, Rac-N-{[4-(5-Cyclopropyl-1,3-Thiazol-4-Yl)-2,5-Dioxoimidazolidin-4-Yl]Methyl}-5-Fluoro-4′-(Trifluoromethyl)[Biphenyl]-2-Carboxamide] |
| 9.1 | Cc1cc(C2(CNC(=O)c3ccccc3-c3ccc(C(F)(F)F)cc3)NC(=O)NC2=O)n(C)n1 (racemic) [Example 275, Rac-N-{[4-(1,3-Dimethyl-1H-Pyrazol-5-Yl)-2,5-Dioxoimidazolidin-4-Yl]Methyl}-4′-(Trifluoromethyl)[Biphenyl]-2-Carboxamide] |
| 13 | O=C1NC(=O)C(CNC(=O)c2ccccc2-c2ccc(C(F)(F)F)cc2)(C2(Cl)CC2)N1 (racemic) [Example 279, Rac-N-{[4-(1-Chlorocyclopropyl)-2,5-Dioxoimidazolidin-4-Yl]Methyl}-4′-(Trifluoromethyl)[Biphenyl]-2-Carboxamide] |
| 6.3 | Cn1cncc1C1(CNC(=O)c2ccccc2-c2ccc(C(F)(F)F)cc2)NC(=O)NC1=O (racemic) [Example 283, Rac-N-{[4-(1-Methyl-1H-Imidazol-5-Yl)-2,5-Dioxoimidazolidin-4-Yl]Methyl}-4′-(Trifluoromethyl)[Biphenyl]-2-Carboxamide] |
| 3.3 | Cc1c(C2(CNC(=O)c3ccc(F)cc3-c3ccc(C(F)(F)F)cc3)NC(=O)NC2=O)ncn1C (racemic) [Example 304, Rac-N-{[4-(1,5-Dimethyl-1H-Imidazol-4-Yl)-2,5-Dioxoimidazolidin-4-Yl]Methyl}-5-Fluoro-4′-(Trifluoromethyl)[Biphenyl]-2-Carboxamide] |
| > 50 | Cc1scnc1C1(CNC(=O)c2ccccc2-c2ccc(C(F)(F)F)cc2)NC(=O)NC1=O (single isomer, unassigned) [Example 2, Ent-N-{[4-(5-Methyl-1,3-Thiazol-4-Yl)-2,5-Dioxoimidazolidin-4-Yl]Methyl}-4′-(Trifluoromethyl)[Biphenyl]-2-Carboxamide] |
| 4.8 | Cc1scnc1C1(CNC(=O)c2ccccc2-c2ccc(C(F)(F)F)cc2)NC(=O)NC1=O (single isomer, unassigned) [Example 3, Ent-N-{[4-(5-Methyl-1,3-Thiazol-4-Yl)-2,5-Dioxoimidazolidin-4-Yl]Methyl}-4′-(Trifluoromethyl)[Biphenyl]-2-Carboxamide] |
